Results from patent US8895574B2, “Benzyloxypyrimidine derivative, agricultural/ horticultural insecticide comprising derivative and method for using same” (Nihon Nohyaku Co., Ltd., priority 2010, dated 2014).

Test system: cattle tick (Haemaphysalis longicornis)
Test: Acaricidal effect on cattle tick, absorbent cotton in glass bottle
Type: in vivo
Details: 96 h, 100 ppm drug solution, 2 ml, 4 days after inoculation, read-out: acaricidal effect against cattle tick (corrected mortality, judged by criterion)
Description: Acaricidal Effect on Cattle Tick (Haemaphysalis longicornis)
An absorbent cotton was placed on the basement of a glass bottle (diameter 3 cm×height 4.5 cm). The pyrimidine derivative of the present invention represented by the formula (I) or a salt thereof was dispersed in water to give a diluted drug solution (100 ppm). The drug solution (2 ml) was added dropwise. Cattle ticks were inoculated by 5 each, and the bottle was capped with a mesh. After 4 days from the inoculation, the dead ticks and live ticks were counted, and the corrected mortality was calculated by the following formula. corrected mortality (%)=(survival rate in untreated group−survival rate in treated group)/(survival rate in untreated group)×100 Diagnostic criteria . . . as defined in Experimental Example 1

In the case of `COc1cncnc1OCc1ccc(C(C)(C)C)cc1` [1-1, 4-(4-t-butylbenzyloxy)-5-methoxypyrimidine], the mortality at 100 ppm is reported as 50 to 79%.
